Assay results from US10124065B2, “Lipids and lipid compositions for the delivery of active agents” (Novartis AG, priority 2013, dated 2018).
Values joined by “and” are separate entries in the source; they are usually repeats but may differ in a detail not shown here. Identical values can stand only once.

Experiments:
[1] = tested on: plasma Factor VII enzyme activity; assay: Mouse Factor VII dosing / Factor VII Activity Assay; format: in vivo; conditions: percent knock down of plasma Factor VII activity, CD-1 mice, 48 h; for KD FVII 0.03 mg/kg: single IV dose 0.03 mg/kg, LNP Chol/DSPC/S010 45/44/9/2; for KD FVII 0.3 mg/kg: single IV dose 0.3 mg/kg, LNP Chol/DSPC/PEG-DMG 45/44/9/2
Description: Female CD-1 mice were received from Harlan Labs and maintained on standard lab chow and water ad libitum. The animals weighed approximately 25 grams at time of dosing. Formulated Factor VII siRNA was administered as a single dose intravenously via the lateral tail vein. Approximately 48 hours after injection, the mice were euthanized by CO2 inhalation followed by exsanguination through the vena cava. […] Plasma collected from injected mice was assayed for Factor VII enzyme activity using the Biophen FVII kit from Hyphen Biomedical (catalog number 221304). An assay standard curve was prepared using pooled plasma aliquots from the vehicle control animals. All samples were diluted to fall within the linear range of the standard curve and Factor VII activity relative to control plasma was reported. Lipid nanoparticles comprising lipid compounds of formula (I) and the FVII siRNA duplex sequence listed above were tested in the Factor VII Activity Assay. The results of this assay are given in Table 4 below as a percent knock down of plasma Factor VII enzyme activity at a dose of 0.3 mg/kg and 0.03 mg/kg.

[2] = tested on: respiratory syncytial virus F protein; assay: Immunization studies, anti-RSV-F titers; format: in vivo; conditions: anti-RSV-F titer, BALB/c, liposomes with 0.1 μg vA317 replicon (naked: 1 μg); for 2wp1 pool 1 / 2wp1 pool 2: 2 weeks after first dose; for 2wp2 pool 1 / 2wp2 pool 2: 2 weeks after second dose; for 4wp2 pool 1 / 4wp2 pool 2: 4 weeks after second dose
Description: BALB/c were immunized with liposomes comprising DSPC, cholesterol, and various lipids of the invention (or, for comparison, the cationic lipid 1,2-dilinoleyloxy-N,N-dimethyl-3-aminopropane or ‘DLinDMA’). The liposomes encapsulated 0.1 μg of “vA317” self-replicating RNA replicon which encodes respiratory syncytial virus F protein (see WO2012/031043). […] Doses were given either on days 0 & 21 or days 0 & 42. Immune responses were assessed 2 weeks after each dose (2wp1, 2wp2), and in some cases also at 4 weeks after the second dose (4wp2).

SMILES	2wp1 pool 1 ([2]; course A = days 0 & 21)	2wp1 pool 2 ([2]; course A = days 0 & 21)	2wp2 pool 1 ([2]; course A = days 0 & 21)	2wp2 pool 2 ([2]; course A = days 0 & 21)	4wp2 pool 1 ([2]; course A = days 0 & 21)	4wp2 pool 2 ([2]; course A = days 0 & 21)	also measured
CCCCCCCC(=O)OCCCCCCCCCCOc1cc(CN(CC)CC)cc(OCCCCCCCCCCOC(=O)CCCCCCC)c1OCCCCCCCCCCOC(=O)CCCCCCC [Ex. 100, ((5-((diethylamino)methyl)benzene-1,2,3-triyl)tris(oxy))tris(decane-10,1-diyl)trioctanoate]							KD FVII 0.03 mg/kg [1]: 26.9%; KD FVII 0.3 mg/kg [1]: 94.0%
CCCCC/C=C\C/C=C\CCCCCCCC(=O)OCCOc1cc(CN(C)C)cc(OCCOC(=O)CCCCCCC/C=C\C/C=C\CCCCC)c1 [Example 40, (9Z,9′Z, 12Z, 12′Z)-((5-((dimethylamino)methyl)-1,3-phenylene)bis(oxy))bis(ethane-2,1-diyl)bis(octadeca-9,12-dienoate)]							KD FVII 0.03 mg/kg [1]: 8.2%; KD FVII 0.3 mg/kg [1]: 89.8%
CCCCC/C=C\C/C=C\CCCCCCCCNC(=O)c1cc(COC(=O)CCCN(C)C)cc(C(=O)NCCCCCCCC/C=C\C/C=C\CCCCC)c1 [Example 66, 3,5-bis((9Z,12Z)-octadeca-9,12-dien-1-ylcarbamoyl)benzyl 4-(dimethylamino)butanoate]	75	75	75	75	75	75	
CCCCC/C=C\C/C=C\CCCCCCCCOc1cc(C(=O)OCCCN(C)C)cc(OCCCCCCCC/C=C\C/C=C\CCCCC)n1 [Example 25, 3-(dimethylamino)propyl 2,6-bis((9Z,12Z)-octadeca-9,12-dien-1-yloxy)isonicotinate]	1217	1883	1611	1156	2850	1767	
CCCCCCCC/C=C\CCCCCCCC(=O)OCCCCOc1cc(CN(C)C)cc(OCCCCOC(=O)CCCCCCC/C=C\CCCCCCCC)c1 [Example 60, (Z)-((5-((dimethylamino)methyl)-1,3-phenylene)bis(oxy))bis(butane-4,1-diyl)dioleate]							KD FVII 0.03 mg/kg [1]: 49.75%
CC/C=C\C/C=C\C/C=C\CCCCCCCC(=O)OCCCCOc1cc(CN(C)C)cc(OCCCCOC(=O)CCCCCCC/C=C\C/C=C\C/C=C\CC)c1 [Example 62, (9Z,9′Z,12Z,12′Z,15Z,15′Z)-((5-((dimethylamino)methyl)-1,3-phenylene)bis(oxy))bis(butane-4,1-diyl)bis(octadeca-9,12,15-trienoate)]							KD FVII 0.03 mg/kg [1]: 85.8%
CCCCC/C=C\C/C=C\CCCCCCCC(=O)OCc1cc(COC(=O)CCCCCCC/C=C\C/C=C\CCCCC)cc(COC(=O)OCCN(C)C)c1 [Example 70, (9Z,9′Z,12Z,12′Z)-(5-((((2-(dimethylamino)ethoxy)carbonyl)oxy)methyl)-1,3-phenylene)bis(methylene)bis(octadeca-9,12-dienoate)]	1416	3110	31550	20124	18779	18358	
CCCCCCCCCCCCCC(=O)OCCCCOc1cc(CN(C)C)cc(OCCCCOC(=O)CCCCCCCCCCCCC)c1 [Example 61, ((5-((dimethylamino)methyl)-1,3-phenylene)bis(oxy))bis(butane-4,1-diyl)ditetradecanoate]							KD FVII 0.03 mg/kg [1]: 0%
CCCCC/C=C\C/C=C\CCCCCCCC(=O)OCc1cc(COC(=O)CCCCCCC/C=C\C/C=C\CCCCC)cc(COC(=O)OCCCN(CC)CC)c1 [Example 69, (9Z,9′Z,12Z,12′Z)-(5-((((3-(diethylamino)propoxy)carbonyl)oxy)methyl)-1,3-phenylene)bis(methylene)bis(octadeca-9,12-dienoate)]	2853	4481	23851	20793	19075	21504	
CCCCC/C=C\C/C=C\CCCCCCCC(=O)OCc1cc(COC(=O)CCCCCCC/C=C\C/C=C\CCCCC)cc(COC(=O)CCN(C)C)c1 [Example 29, (9Z,9′Z,12Z,12′Z)-(5-(((3-(dimethylamino)propanoyl)oxy)methyl)-1,3-phenylene)bis(methylene)bis(octadeca-9,12-dienoate)]	2101	3584	12529	18669	23930	37278	
CCCCCCCCCCCCC(=O)OCc1cc(COC(=O)CCCCCCCCCCCC)cc(CN(C)C)c1 [Example 34, (5-((dimethylamino)methyl)-1,3-phenylene)bis(methylene)ditridecanoate]							KD FVII 0.3 mg/kg [1]: 0%
CCCCCCCC/C=C\CCCCCCCCOc1cc(OCCCCCCCC/C=C\CCCCCCCC)cc(C2OCC(CN3CCCC3)O2)c1 (stereo not drawn) [Example 9, 1-((2-(3,5-bis((Z)-octadec-9-en-1-yloxy)phenyl)-1,3-dioxolan-4-yl)methyl)pyrrolidine]	1832	1352	29707	18788			
CCCCC/C=C\C/C=C\CCCCCCCCOc1cc(CCCOC(=O)CCN(C)C)cc(OCCCCCCCC/C=C\C/C=C\CCCCC)c1 [Example 81, 3-(3,5-bis((9Z,12Z)-octadeca-9,12-dien-1-yloxy)phenyl)propyl 3-(dimethylamino)propanoate]	1779	1553	24648	15304	41921	34684	
CCCCCCCC/C=C\CCCCCCCCOc1cc(OCCCCCCCC/C=C\CCCCCCCC)cc(C2OCC(COC(=O)CN(C)C)O2)c1 (stereo not drawn) [Example 12, (2-(3,5-bis((Z)-octadec-9-en-1-yloxy)phenyl)-1,3-dioxolan-4-yl)methyl 2-(dimethylamino)acetate]							2wp1 pool 1 ([2]; course B = days 0 & 42): 88; 2wp1 pool 2 ([2]; course B = days 0 & 42): 128; 2wp2 pool 1 ([2]; course B = days 0 & 42): 4550; 2wp2 pool 2 ([2]; course B = days 0 & 42): 4828; 4wp2 pool 1 ([2]; course B = days 0 & 42): 4787; 4wp2 pool 2 ([2]; course B = days 0 & 42): 3972
CCCCC/C=C\C/C=C\CCCCCCCCOc1cc(COC(=O)OCCCN(C)C)cc(OCCCCCCCC/C=C\C/C=C\CCCCC)c1 [Example 68, 3,5-bis((9Z,12Z)-octadeca-9,12-dien-1-yloxy)benzyl (3-(dimethylamino)propyl) carbonate]	1031	494	11315	7800	12963	17734	
CCCCC/C=C\C/C=C\CCCCCCCCOCC(CN(C)C)OCCCCCCCC/C=C\C/C=C\CCCCC (stereo not drawn) [DLinDMA, 1,2-dilinoleyloxy-N,N-dimethyl-3-aminopropane, reference compound]					26504 and 50799	28008 and 35992	2wp1 pool 1 ([2]; course B = days 0 & 42): 13; 2wp1 pool 2 ([2]; course B = days 0 & 42): 4; 2wp2 pool 1 ([2]; course B = days 0 & 42): 18290; 2wp2 pool 2 ([2]; course B = days 0 & 42): 5538; 4wp2 pool 1 ([2]; course B = days 0 & 42): 13936; 4wp2 pool 2 ([2]; course B = days 0 & 42): 7020
CCCCC/C=C\C/C=C\CCCCCCCCOc1cc(COC(=O)CCCN(C)C)cc(OCCCCCCCC/C=C\C/C=C\CCCCC)c1 [Example 13, 3,5-bis((9Z,12Z)-octadeca-9,12-dien-1-yloxy)benzyl 4-(dimethylamino)butanoate]	495	620	7157	12316			
